Reference: US12564547B2, “Compositions, formulations, and methods for skin treatment” (Oddity Labs, LLC, priority 2022, dated 2026)

What was measured:
Type in all cases: cell-based
[1] = tested on: TK.6 lymphoblasts; experiment: In vitro genotoxicity: TK.6 micronuclei assay (FIG. 5B) and SOS chromotest (FIG. 5C); conditions: TK.6 micronuclei assay without S9, 24 hr, and SOS chromotest; across a concentration range
Experimental: (§1) The safety/toxicology profiles of a compound or salt of the present disclosure was evaluated via a series of in vitro genotoxicity assays, including the SOS-chromotest to determine bacterial genotoxicity, and the TK.6 micronucleus assay to determine chromosomal damage and forward mutations. Standard reactive oxygen species (ROS) and caspase 3/7 assay were conducted to determine general cellular toxicity. Moreover, a series of sensitization tests were conducted to predict any potential skin sensitivity. These include the direct peptide reactivity assay to evaluate haptenization, the KeratinoSens reporter assay to determine any potential sensitivity via the activation of a cytoprotective pathway, and an immunological assay using human immature monocyte-derived dendritic cells to evaluate any potential immunogenicity.
TK.6 lymphoblasts are a cell line used for gene mutation analyses. TK.6 lymphoblasts are heterozygous for the thymidine kinase gene (TK) and enable the detection of forward mutations and chromosomal damage, which manifests as micronuclei. TK.6 lymphoblasts are detectable via flow cytometry. TK.6 cells were dosed with the compounds or a vehicle control (0.1% v/v DMSO) and cultured without S9 metabolic activation for 24 hr. FIG. 5A-FIG. 5E show the results of in vitro genotoxicity assay and the TK.6 micronucleus assay. FIG. 5A are example plots of TK.6 cells treated with compound V-1. Methyl methanesulfonate, a genotoxic, alkylating agent was used as a positive control for micronuclei detection. […] The SOS chromotest is a bacteria-based test for genotoxicity. […] Cells were treated with either the compounds or vehicle control containing correspondingly % v/v-matched amounts of DMSO. High represents 10 µg/mL while low represents 1 μg/mL. Tested compounds elicited no or minor caspase 3/7 activation at low and high concentrations. In FIG. 5A-FIG. 5E, data represents mean±s.d. and representative of at least 2 experimental replicates.

[2] = tested on: Nrf2-ARE pathway; experiment: KeratinoSens Nrf2-ARE reporter assay (ARE-luciferase activity); conditions: across a concentration range
Experimental: as §1
The Nrf2-ARE pathway is a master regulator of cytoprotective responses to oxidative stress, and is an early indicator of skin sensitization. Nrf2 (nuclear factor erythroid 2-related factor) is a transcription factor that binds to antioxidant responsive elements (ARE). By fusing ARE to the light-producing luciferase gene, a KeratinoSens Nrf2-ARE reporter assay was constructed whereby luciferase signal is directly correlated to Nrf2-ARE pathway activation. […] FIG. 6B describes an in vitro dendritic cell sensitization test. Dendritic cell activation is widely-associated with downstream immunogenicity. CD14+ cells from human donor peripheral mononuclear cells were harvested and differentiated them into immature monocyte-derived DCs using granulocyte-macrophage colony-stimulating factor (GM-CSF) and interleukin-4 (IL-4), then treated with the lead compounds. Killed E. Coli and TNF-α were used as positive controls. FIG. 6C-FIG. 6E are example plots showing change in HLA-DR expression. Expression of CD80 (FIG. 6C), PDL-1 (FIG. 6D), and CD141 (FIG. 6E) as quantified via mean fluorescence intensity (MFI) following dosing with example compounds. […] In FIG. 6A-FIG. 6E, data represents mean±s.d. and representative of at least 2 experimental replicates.

[3] = tested on: human dermal fibroblasts; experiment: Human dermal fibroblast cells (hDFC) proliferation, cell viability assay (CellTiter-Glo, manual cell counting); conditions: hDFCs proliferation; control is DMSO

CCOCCCn1c(=O)[nH]c2ccccc2c1=O [V-1, 3-(3-ethoxypropyl)-1H-quinazoline-2,4-dione]
genotoxic transformation potential [1]: did not exhibit any genotoxic transformation potential
skin sensitizing potential (Nrf2-ARE pathway activation) [2]: did not exhibit apparent Nrf2-ARE pathway activation
Activity (Percent Increase Proliferation of hFDPCs (%)) [3]: C (increased proliferation of hFDPCs equals to or larger than 4% and less than 8%)

CN(C)C(=O)COC(=O)c1ccc2[nH]c3c(c2c1)CCCC3 [IV-2, [2-(dimethylamino)-2-oxoethyl] 6,7,8,9-tetrahydro-5H-carbazole-3-carboxylate]
genotoxic transformation potential [1]: mild genotoxicity at higher concentrations
skin sensitizing potential (Nrf2-ARE pathway activation) [2]: did not exhibit apparent Nrf2-ARE pathway activation
Activity (Percent Increase Proliferation of hFDPCs (%)) [3]: B (increased proliferation of hFDPCs equals to or larger than 1% and less than 4%)

COc1ccc(CCCc2nc3ccccc3[nH]2)cc1 [VII-34, 2-[3-(4-methoxyphenyl)propyl]-1H-benzimidazole]
skin sensitizing potential (Nrf2-ARE pathway activation) [2]: did not exhibit apparent Nrf2-ARE pathway activation
Activity (Percent Increase Proliferation of hFDPCs (%)) [3]: D (increased proliferation of hFDPCs equals to or larger than 8%)

CCCCC(=O)NCCc1ccc(OC)cc1 [II-1, N-[2-(4-methoxyphenyl)ethyl]pentanamide]
genotoxic transformation potential [1]: mild genotoxicity at higher concentrations
skin sensitizing potential (Nrf2-ARE pathway activation) [2]: did not exhibit apparent Nrf2-ARE pathway activation
Activity (Percent Increase Proliferation of hFDPCs (%)) [3]: C (increased proliferation of hFDPCs equals to or larger than 4% and less than 8%)

Cc1[nH]c2ccc(C(=O)NCC3CCCO3)cc2c1C (stereo not shown) [IV-1, 2,3-dimethyl-N-(oxolan-2-ylmethyl)-1H-indole-5-carboxamide]
genotoxic transformation potential [1]: mild genotoxicity at higher concentrations
skin sensitizing potential (Nrf2-ARE pathway activation) [2]: exhibited sensitizing potential
Activity (Percent Increase Proliferation of hFDPCs (%)) [3]: C (increased proliferation of hFDPCs equals to or larger than 4% and less than 8%)

COc1ccc(NC(=O)C(=O)NCCCn2ccnc2)cc1 [III-1, N-(3-imidazol-1-ylpropyl)-N′-(4-methoxyphenyl)oxamide]
genotoxic transformation potential [1]: mild genotoxicity at higher concentrations
skin sensitizing potential (Nrf2-ARE pathway activation) [2]: did not exhibit apparent Nrf2-ARE pathway activation
Activity (Percent Increase Proliferation of hFDPCs (%)) [3]: D (increased proliferation of hFDPCs equals to or larger than 8%)

CC(=O)OC(Cn1ccnc1)c1ccccc1 (stereo not shown) [VII-28, (2-imidazol-1-yl-1-phenylethyl) acetate]
Activity (Percent Increase Proliferation of hFDPCs (%)) [3]: A (increased proliferation of hFDPCs of less than 1%)

CN(C)CN(C)C [VII-11, N,N,N′,N′-tetramethylmethanediamine]
Activity (Percent Increase Proliferation of hFDPCs (%)) [3]: D (increased proliferation of hFDPCs equals to or larger than 8%)

O=C(CSc1nnnn1-c1ccc(O)cc1)N1CCCCC1 [VII-36, 2-[1-(4-hydroxyphenyl)tetrazol-5-yl]sulfanyl-1-piperidin-1-ylethanone]
Activity (Percent Increase Proliferation of hFDPCs (%)) [3]: D (increased proliferation of hFDPCs equals to or larger than 8%)

CC(NC(=O)C(=O)NC(C)c1ccccc1)c1ccccc1 (stereo not shown) [III-4, N,N′-bis(1-phenylethyl)oxamide]
Activity (Percent Increase Proliferation of hFDPCs (%)) [3]: B (increased proliferation of hFDPCs equals to or larger than 1% and less than 4%)

COc1cc(OC)nc(OC)n1 [VII-14, 2,4,6-trimethoxypyrimidine]
Activity (Percent Increase Proliferation of hFDPCs (%)) [3]: B (increased proliferation of hFDPCs equals to or larger than 1% and less than 4%)

Cn1c(SCC(=O)N2CCCCCC2)nnc1-c1ccccc1 [I-1, 1-(azepan-1-yl)-2-[(4-methyl-5-phenyl-1,2,4-triazol-3-yl)sulfanyl]ethanone]
genotoxic transformation potential [1]: mild genotoxicity at higher concentrations
skin sensitizing potential (Nrf2-ARE pathway activation) [2]: did not exhibit apparent Nrf2-ARE pathway activation
Activity (Percent Increase Proliferation of hFDPCs (%)) [3]: C (increased proliferation of hFDPCs equals to or larger than 4% and less than 8%)

CCOC(Cn1ccnc1)OCC [VII-30, 1-(2,2-diethoxyethyl)imidazole]
Activity (Percent Increase Proliferation of hFDPCs (%)) [3]: D (increased proliferation of hFDPCs equals to or larger than 8%)

COCCNC(=O)c1ccc2[nH]c3c(c2c1)CCCC3 [IV-3, N-(2-methoxyethyl)-6,7,8,9-tetrahydro-5H-carbazole-3-carboxamide]
Activity (Percent Increase Proliferation of hFDPCs (%)) [3]: D (increased proliferation of hFDPCs equals to or larger than 8%)

oxetan-3-amine [VII-13]
Activity (Percent Increase Proliferation of hFDPCs (%)) [3]: D (increased proliferation of hFDPCs equals to or larger than 8%)

NC(=O)C1CCCCC1NC(=O)c1ccc(Cl)cn1 (stereo not shown) [VII-21, N-(2-carbamoylcyclohexyl)-5-chloropyridine-2-carboxamide]
Activity (Percent Increase Proliferation of hFDPCs (%)) [3]: D (increased proliferation of hFDPCs equals to or larger than 8%)

CCNC(=O)NC1CN(Cc2ccccc2N(C)C)C[C@@H]1OC (stereo partly drawn) [VII-38, 1-[(4S)-1-[[2-(dimethylamino)phenyl]methyl]-4-methoxypyrrolidin-3-yl]-3-ethylurea]
Activity (Percent Increase Proliferation of hFDPCs (%)) [3]: D (increased proliferation of hFDPCs equals to or larger than 8%)

CNC(=O)C(CC(C)C)NC(=O)c1sccc1OC (stereo not shown) [VI-3, 3-methoxy-N-[4-methyl-1-(methylamino)-1-oxopentan-2-yl]thiophene-2-carboxamide]
Activity (Percent Increase Proliferation of hFDPCs (%)) [3]: D (increased proliferation of hFDPCs equals to or larger than 8%)

COc1ccc(CN2CCN(C(=O)CCn3ccnc3)CC2=O)cc1 [VII-32, 4-(3-imidazol-1-ylpropanoyl)-1-[(4-methoxyphenyl)methyl]piperazin-2-one]
Activity (Percent Increase Proliferation of hFDPCs (%)) [3]: A (increased proliferation of hFDPCs of less than 1%)

COCCOCCCn1c(=O)[nH]c2ccccc2c1=O [V-5, 3-[3-(2-methoxyethoxy)propyl]-1H-quinazoline-2,4-dione]
Activity (Percent Increase Proliferation of hFDPCs (%)) [3]: D (increased proliferation of hFDPCs equals to or larger than 8%)

Cc1ccsc1C(=O)NC(C)C [VI-2, 3-methyl-N-propan-2-ylthiophene-2-carboxamide]
Activity (Percent Increase Proliferation of hFDPCs (%)) [3]: B (increased proliferation of hFDPCs equals to or larger than 1% and less than 4%)

CC(NC(=O)COc1ccc(CN(C)S(C)(=O)=O)cc1)c1ccccc1 (stereo not shown) [VII-26, 2-[4-[[methyl(methylsulfonyl)amino]methyl]phenoxy]-N-(1-phenylethyl)acetamide]
Activity (Percent Increase Proliferation of hFDPCs (%)) [3]: D (increased proliferation of hFDPCs equals to or larger than 8%)

COc1ccc(CN2CCN(C(=O)Cn3ccnc3)CC2)cc1 [VII-33, 2-imidazol-1-yl-1-[4-[(4-methoxyphenyl)methyl]piperazin-1-yl]ethanone]
Activity (Percent Increase Proliferation of hFDPCs (%)) [3]: C (increased proliferation of hFDPCs equals to or larger than 4% and less than 8%)

CC(O)CNC(=O)c1ccc2[nH]c3c(c2c1)CCCC3 (stereo not shown) [IV-4, N-(2-hydroxypropyl)-6,7,8,9-tetrahydro-5H-carbazole-3-carboxamide]
Activity (Percent Increase Proliferation of hFDPCs (%)) [3]: C (increased proliferation of hFDPCs equals to or larger than 4% and less than 8%)

CCn1c(NN)nc2ccccc2c1=O [VII-24, 3-ethyl-2-hydrazinylquinazolin-4-one]
Activity (Percent Increase Proliferation of hFDPCs (%)) [3]: D (increased proliferation of hFDPCs equals to or larger than 8%)

CC1=C(/C=C/C(C)=C/C=C/C(C)=C/CO)C(C)(C)CCC1 [Retinol, reference compound]
Activity (Percent Increase Proliferation of hFDPCs (%)) [3]: B (increased proliferation of hFDPCs equals to or larger than 1% and less than 4%)

Cc1ccc(-c2nnc(SCC(=O)N3CCCC3)n2N)cc1 [I-3, 2-[[4-amino-5-(4-methylphenyl)-1,2,4-triazol-3-yl]sulfanyl]-1-pyrrolidin-1-ylethanone]
Activity (Percent Increase Proliferation of hFDPCs (%)) [3]: C (increased proliferation of hFDPCs equals to or larger than 4% and less than 8%)
